Source: patent publication US10472330B2, “Substituted triazenes protected from degradation by carboxylation of N1” (ARIZONA BOARD OF REGENTS ON BEHALF OF THE UNIVERSITY OF …, priority 2015, dated 2019)

What was measured:
Type in all cases: physicochemical
[1] = In situ real-time pH measurement upon UV irradiation; details: compared with Compound A
Procedure: In an effort to examine the rate order for the pH-increasing reaction more carefully, in situ, real-time pH measurements were acquired. Compound A was dissolved in water and the pH of the solution was adjusted to 9 such that it would not form Compound B in the absence of light. […] This spike was not at all consistent with the model of the pH increase being solely linked to the concentration of Compound B being generated.
A sample was irradiated and then the light was turned off once the pH of the solution started to increase noticeably. […] The experiment was repeated with increasing times of irradiation, and a saw-tooth pattern was obtained. The process was not completely reversible due to some degradation to Compound B. Indeed, triazabutadiene Compound A can serve a dual role of being a photo-masked base (see FIG. 4B(i)), and a base whose intrinsic functional group properties are altered photochemically (FIG. 4B(iii)).
Referring to FIG. 5A(iii), Compound C and Compound D were examined in an effort to find a base that was reversibly basic but also more resistant to degradation.

[2] = Photo-induced degradation of triazabutadienes under hand-held UV lamp, followed by NMR; details: buffered borate solution, UV lamp, NMR integration
Procedure: (i) The reaction was monitored by comparing starting materials (A, C, D, and E) with product (B); (ii) Peak absorption and extinction coefficients for all of the compounds were excitable by the UV source used; (iii) Time-dependent conversion of compounds was measured by NMR integration.
Referring to FIG. 5A, in some embodiments, triazabutadiene molecules of the present invention may readily photoisomerize to a more reactive Z-form. As an example, an aqueous solution of Compound A was irradiated with a simple hand-held UV lamp (“365 nm,” measured at 350 nm). Consumption of Compound A was observed after only a few hours. […] Without wishing to limit the present invention to any theory or mechanism, it was hypothesized that if a two-electron process were happening, then Compound A-Z would be more basic than Compound A-E. A 1.0 N NaOH solution of Compound A was treated with light. […] Benzene diazonium ions also absorb UV light to expel nitrogen and generate a benzene radical. In order to resolve if the initial cleavage undergoes a radical homolytic mechanism versus a two-electron heterolytic mechanism, a trapping experiment using resorcinol was conducted. (Resorcinol was chosen because it can serve a dual role as a radical scavenger and a trap benzene diazonium species that could be formed.) An excess of resorcinol was added to a pH 9 borate-buffered solution of Compound A and the mixture was irradiated with light. The known azobenzene, Sudan Orange G, was formed in a 65% yield (versus 4% for the non-irradiated reaction). Derivatives of Compound A were made to examine the effects of electronic perturbations on the light-induced degradation. […] A buffered borate solution was chosen due to its alkaline nature and lack of complicating signals in the NMR experiment. Compounds C-E all have absorption spectra that are well within the range of the UV lamp (see FIG. 5A(ii)).

[3] = Hydrolysis (deprotection) rate of protected triazabutadienes; details: relative to ethyl carbamate 7, FIG. 8G
Procedure: The reaction is assumed to be second order with the addition of hydroxide to be the rate-determining step.
Without wishing to limit the present invention to any theory or mechanism, it is believed that this can be rationalized by a model whereby the carbonyl is stabilized by being more electron rich and thus less prone to nucleophilic attack.
The reaction is assumed to be second order with the addition of hydroxide to be the rate-determining step. […] Compound was in a concentration of 31 μM in 25 mM sodium borate buffer of pH 10 with scans every 60 seconds. […] Scans were obtained every 60 seconds.

[4] = Decomposition in D2O / buffers followed by NMR; details: for Compound consumed after 24 hours: D2O, in the dark
Procedure: For decomposition experiments, buffers were made to the appropriate pH in a 9:1 mix of H2O:D2O. These solutions were added to the compound being assayed such that the buffer capacity was at least 10 fold the concentration of the compound. Some experiments used 5 mg compound in 0.5 mL of buffer (e.g., pH 5 acetate buffer at 25 degrees C.). These were immediately inserted into an NMR instrument and scans were taken at even time intervals to calculate the half-life of the compound based on integration.
(§1) To render the triazabutadiene water-soluble, methyl imidazole was alkylated with propane sultone to provide the Zwitterionic NHC precursor Compound 5a (see FIG. 6E). […] Compound 6a was highly colored, so its pH dependence was studied using UV/vis. The reactions were not only pH-, but also scan-frequency dependent. Upon finding this, the stability of Compound 6a was studied in D2O in the dark using NMR. Even in the dark it was unstable, but not in the diazonium-forming way. Both Compound 6b and a more hindered mesityl (Mes) substituted Compound 6c (see FIG. 6E) were synthesized to stabilize what was initially considered to be a rearrangement pathway that could be blocked by steric repulsion. […] Dissolution in 0.1 N NaOH rendered all compounds stable (e.g., no detectable degradation after 24 hours in the dark).
As mentioned above, Compound 6c was reasonably stable in pure D2O. Upon adjusting the pH to 5 with HCl, a rapid initial consumption of Compound 6c to Compound 7 (see FIG. 6E) and a benzenediazonium salt was noted. After this initial burst of reactivity, a slowing and apparent arresting of the reaction was noted. At this pH the hydronium was the limiting reagent. All future reactions were run in buffers with a buffer capacity sufficient to maintain a large excess of hydronium ions. The experiments were performed in 90:10 H2O:D2O buffered solutions to minimize considerations of pH vs. pD. The decomposition to diazonium salts and Compound 7 was measured as a function of pH in phosphate/citrate buffers from pH 4-7 and in a phosphate buffer from pH 6-8. All runs provided linear correlations of concentration and time, indicating a pseudo-zero order reaction (first order with respect to hydronium ion with a large excess of hydronium ions). While the peaks for Compound 7 remained constant, the peaks associated with Compound 6c drifted downfield as the reaction progressed. This drifting was highly reproducible across samples and buffers, but the underlying cause is not understood at this time. A sigmoidal correlation between rate and buffer pH centered at pH 6 was obtained. When resorcinol was not added to consume the diazonium species, 4-phenylazophenol (Compound 8) was observed (see FIG. 6F). Compound 8 came from the decomposition of one diazonium ion to phenol followed by reaction with a second diazonium ion. The instability of Compound 6c in a pH 7 phosphate buffer was surprising given the stability in D2O. Compound 6c was tested in a non-buffered 90:10 H2O:D2O solution and observed only […] after 6 hours.
(§2) To further examine the reactivity of this class of compounds, variants Compound 6d and Compound 6e were synthesized (see FIG. 6G). It was hypothesized that the p-methoxy and p-nitro analogs (Compound 6d and Compound 6e, respectively) would display different reactivity profiles. […] After collecting the precipitate and dissolving it in deuterated methanol, no change was observed from a sample of Compound 6e that had never been exposed to a buffered solution. […] It is possible that: 1) that the sodium salt of Compound 6e is much less soluble than the potassium salt; or 2) with different solvating ions present the sulfonate interacts with the electron-poor N2 nitrogen atom of the triazabutadiene to break conjugation and form an insoluble complex (this is backed by a reversible color change of the starting rust-red solid, to the light yellow precipitate). […]

Solubility observations = test: Solubility observations
Procedure: It is possible that Compound A may be useful as a photo-catalytic base in the context of organic reactions. […] As noted previously, Compound A is quite stable to an excess of acetic acid in DMSO, showing only 12% degradation over 14 hours at room temperature. […] To confirm that this was due to the acid, a solution of Compound A (in pure DMSO) was irradiated. After four hours of constant irradiation in acid-free DMSO, an E:Z ratio of nearly 50:50 was observed.
(§3) As another non-limiting example, an azide (e.g., NHS-azide) to N-heterocyclic carbene (NHC) route may be used to synthesize triazabutadiene molecules (e.g., see FIG. 6C). For example, as shown in Compound 4 of FIG. 6D, a triazabutadiene molecule was synthesized from dimethyl imidazole derived NHC and phenyl azide. […] This change was confirmed to coincide with diazonium formation by trapping the reactive species with resorcinol to provide known diazo dye Sudan Orange G. When the triazabutadiene molecule (Compound 4) was treated with the much less acidic acetic acid, the same product was obtained.
as §1, §2

[5] = Acid-triggered diazonium formation; details: methanolic HCl or exposure to acid; trapped with resorcinol or Tyr 6
Description: as §3
To further examine the reactivity of this class of compounds, variants Compound 6d and Compound 6e were synthesized (see FIG. 6G). It was hypothesized that the p-methoxy and p-nitro analogs (Compound 6d and Compound 6e, respectively) would display different reactivity profiles. […] After collecting the precipitate and dissolving it in deuterated methanol, no change was observed from a sample of Compound 6e that had never been exposed to a buffered solution. […]

SMILES: Cc1cc(C)c(-n2ccn(CCCS(=O)(=O)[O-])c2=NN=Nc2ccc(C#N)cc2)c(C)c1.[K+] [Compound D]
- pH change on irradiation [1]: slow subtle change to the pH
- Relative rate of light-induced degradation [2]: slower than Compound A

SMILES: Cc1cc(C)c(-n2cc[n+](-c3c(C)cc(C)cc3C)c2N=NN(C(=O)OC(C)C)c2ccccc2)c(C)c1.[Cl-] [Compound 13]
- Effect of substituent on rate of deprotection / hydrolysis [3]: small change in rate

SMILES: Cc1cc(C)c(-n2ccn(CCCS(=O)(=O)[O-])c2=NN=Nc2ccccc2)c(C)c1.[K+] [Compound 6c, Potassium 3-(3-mesityl-2-(phenyltriaz-2-en-1-ylidene)-2,3-dihydro-1H-imidazol-1-yl) propane-1-sulfonate]
- Compound consumed after 24 hours ([4]; NMR): less than 10%
- Compound consumed after 6 hours ([4]; non-buffered 90:10 H2O:D2O): > 7%
- pH at centre of sigmoidal correlation between decomposition rate and buffer pH ([4]; phosphate/citrate pH 4-7 and phosphate pH 6-8 buffers, 90:10 H2O:D2O): 6

SMILES: COc1ccc(N=NN=c2n(CCCS(=O)(=O)[O-])ccn2-c2c(C)cc(C)cc2C)cc1.[K+] [Compound 6d]
- Compound consumed after 24 hours ([4]; NMR): 26%

SMILES: Cn1ccn(CCCS(=O)(=O)O)c1=NN=Nc1ccccc1 [Compound 6a]
- Compound consumed after 24 hours ([4]; NMR): 50%
- Water solubility (Solubility observations): highly water soluble

SMILES: Cc1cc(C)c(-n2cc[n+](-c3c(C)cc(C)cc3C)c2N=NN(C(=O)OCC(C)(C)C)c2ccccc2)c(C)c1.[Cl-] [Compound 12]
- Effect of substituent on rate of deprotection / hydrolysis [3]: small change in rate

SMILES: CCOC(=O)N(N=Nc1n(-c2c(C)cc(C)cc2C)cc[n+]1-c1c(C)cc(C)cc1C)c1ccc(C)cc1.[Cl-] [Compound 8]
- Effect of substituent on rate of deprotection / hydrolysis [3]: slowed the rate of deprotection moderately

SMILES: Cc1cc(C)c(-n2ccn(CCCS(=O)(=O)[O-])c2=NN=Nc2cccc([N+](=O)[O-])c2)c(C)c1.[K+] [Compound C]
- pH change on irradiation [1]: slow subtle change to the pH
- Relative rate of light-induced degradation [2]: slower than Compound A

SMILES: CC(C)(C)n1ccn(CCCS(=O)(=O)O)c1=NN=Nc1ccccc1 [Compound 6b]
- Compound consumed after 24 hours ([4]; NMR): 50%

SMILES: CCOC(=O)N(N=Nc1n(-c2c(C)cc(C)cc2C)cc[n+]1-c1c(C)cc(C)cc1C)c1ccc([N+](=O)[O-])cc1.[Cl-] [Compound 11]
- Effect of substituent on rate of deprotection / hydrolysis [3]: slowed hydrolysis

SMILES: CCOC(=O)N(N=Nc1n(-c2c(C)cc(C)cc2C)cc[n+]1-c1c(C)cc(C)cc1C)c1ccc(C(F)(F)F)cc1.[Cl-] [Compound 10]
- Effect of substituent on rate of deprotection / hydrolysis [3]: slowed hydrolysis

SMILES: CCOC(=O)N(N=Nc1n(-c2c(C)cc(C)cc2C)cc[n+]1-c1c(C)cc(C)cc1C)c1ccc(OC)cc1.[Cl-] [Compound 9]
- Effect of substituent on rate of deprotection / hydrolysis [3]: rate could not be determined

SMILES: Cn1ccn(C)c1=NN=Nc1ccccc1 [Compound 4]
- Response to acid (diazonium formation) [5]: rapid color change
- Water solubility (Solubility observations): not water-soluble

SMILES: Cc1cc(C)c(-n2ccn(CCCS(=O)(=O)[O-])c2=NN=Nc2ccc([N+](=O)[O-])cc2)c(C)c1.[K+] [Compound E]
- Relative rate of light-induced degradation [2]: recalcitrant to degradation

SMILES: Cc1cc(C)c(-n2ccn(CCCS(=O)(=O)[O-])c2=NN=Nc2ccc([N+](=O)[O-])cc2)c(C)c1.[K+] [Compound 6e]
- Stability after 24 hours ([4]; pure D2O, dark, room temperature, NMR): stable to within the detection limit of NMR
- Response to acid (diazonium formation) [5]: immediate color change
- Behaviour in buffered solution (solubility) (Solubility observations; pH 5, 6 and 7 phosphate/citrate buffer): rapidly precipitated out of solution
